Data: patent publication US5698567A, “Heterocyclic spiro compounds” (Adir Et Compagnie, priority 1995, dated 1997)
pIC50: −log10 of the molar value. Counter-ions that a name gives are not always drawn.

Tests used:
[1] = system: 5-lipoxygenase; experiment: Inhibition of the synthesis of LTB4 by the peritoneal PMN of rats in vitro (5-lipoxygenase-inhibiting activity); format: cell-based, rat; settings: rat peritoneal PMN, A23187 10^-6 M
Description: 1.1 Determination of 5-1ipoxygenase-inhibiting activity in vitro (see Goldyne M. E., Burrish G. F., Poubelle P. and Borgeat P., Arachidonic Acid Metabolism among human mononuclear leukocytes. The Journal of Biological Chemistry. Vol. 259, N° 4, p. 8815-8819, 1984, and New Chang C. and Gin Wensu. Stimulation of 5-Lipoxygenase Activity in Polymorphonuclear Leukocytes of Rats by Caseinate Treatment. Biochemical Pharmacology. Vol. 36, N° 8, p. 3033-3036, 1987).
(§1) 5-Lipoxygenase-inhibiting activity was determined on peritoneal leukocytes of rats. Leukocytosis is induced in male OFA rats (IFFA CREDO) weighing 200-250 g by the intraperitoneal injection of 12% sodium caseinate. 18 hours later, the cells are collected by washing the abdominal cavity. The number of cells is adjusted to 2×10^6 /ml.
(§2) The cell suspension is incubated for 10 minutes at 37° C. in the presence of Ca^2+ 5×10^-4 M and Mg^2+ 2×10^-3 M and of various concentrations of the test products. The cells are then stimulated with the calcium ionophore A23187 at a concentration of 10^-6 M for 5 minutes at 37° C. Controls are carded out by incubating the cells with the solvent for the products: 2% DMSO.
After stopping the reaction at +4° C. and centrifugation, the quantity of LTB4 in ng/2×10^6 cells in the supernatants is determined by the E.I.A. method (Statlergenes France). The percentage inhibition is calculated as follows: [formula]
(§3) Metabolism of arachidonic acid by the peritoneal PMN of rats stimulated
(§4) for 5 minutes in vitro by the calcium ionophore (A23187): 10^-6 M.
(§5) Incubation of the products with the cells for 10 minutes prior to
(§6) stimulation with the ionophore.

[2] = system: synthesis of PGE2 by the peritoneal PMN of rats; experiment: Inhibition of the synthesis of PGE2 by the peritoneal PMN of rats in vitro; format: cell-based, rat; settings: A23187; for inhibition at 100 µM: 10^-4 M; for inhibition at 100 µM / inhibition at 10 µM: rat peritoneal PMN; for inhibition at 10 µM: 10^-5 M; for pIC50: rat peritoneal PMN in vitro
Method: as §1, §2, §3, §4, §5, §6

[3] = system: 5-lipoxygenase; experiment: Inhibition of the synthesis of LTB4 in total blood of rats ex vivo (5-lipoxygenase-inhibiting activity); parameters: species or system rat; settings: 60 μmol/kg p.o., 1 h; A23187 5 × 10^-5 M, n = 8
Method: 1.2 Determination of 5-lipoxygenase-inhibiting activity ex vivo (see Brideau C., Chan C., Charleson S., Denis D. et al. Pharmacology of MK-0591 (3-[1-(4-chlorobenzyl)-3-(t-butyl-thio)-5(quinolin-2-yl-methoxy)-indol-2-yl]-2,2-dimethyl propanoic acid), a Potent, Orally Active Leukotriene Biosynthesis Inhibitor. Can. J. Physiol. Pharmacol. Vol. 70, p. 799-807, 1992).
Inhibition of the biosynthesis of leukotrienes ex vivo following oral administration of the compounds was determined by studying the production of leukotrienes on total blood of rats stimulated in vitro by the calcium ionophore at time 1 hour after oral administration of the compounds.
The various products are administered in suspension in hydroxyethylcellulose: 0.5% H.E.C. at a dose of 60 μmol/kg. Each product is studied on a group of 8 different animals. A control group receives 0.5% H.E.C. only. After intracardial removal of the blood from each rat (male Sprague Dawley rats weighing 150-200 g IFFA CREDO), 1 ml of heparinised blood is incubated with the calcium ionophore A23 187 at a concentration of 5×10^-5 M for 10 minutes at 37° C. The blood is then centrifuged immediately and 100 μl of plasma are extracted in 400 μl of methanol. After centrifugation, the supernatant is evaporated to dryness under N2, the dry residue is taken up in buffer solution, and the LTB4 is assayed by the E.I.A. method (Stallergenes France).
The percentage inhibition is expressed as follows: [formula] 2/Results
Average relative to all controls n = 31
Products administered p.o. 1 hour before removal of blood n = 8
Total blood of rats stimulated for 10 minutes in vitro by the calcium

Structure (SMILES) | LTB4 % Inhibition ([1]; 4.10^-8 M) [%] | LTB4 % Inhibition ([1]; 10^-6 M) [%] | LTB4 % Inhibition ([1]; 10^-7 M) [%] | LTB4 % Inhibition ([1]; 10^-8 M) [%] | inhibition at 100 µM [2] [%] | inhibition at 10 µM [2] [%] | % Inhibition of the synthesis of LTB4 in total blood of rats ex vivo [3] [%] | pIC50 [2]
O=C1NCC2(CCN(CC(c3ccccc3)c3ccc(OCc4ccc5ccccc5n4)cc3)CC2)O1 (racemic) [Example 6, (R,S)-8-{2-phenyl-2-[4-(quinol-2-ylmethoxy)phenyl]ethyl}-3,8-diaza-1-oxa-2-oxospiro[4,5]decane] | 60 | 100 | 93 | 21 | 88 | 3 | 64 | –
O=C1NCC2(CCN(CC(c3ccc(Cl)cc3)c3ccc(OCc4ccc5ccccc5n4)cc3)CC2)O1 (racemic) [Example 8, (R,S)-8-{2-(4-chlorophenyl)-2-[4-(quinol-2-ylmethoxy)phenyl]ethyl}-3,8-diaza-1-oxa-2-oxospiro[4,5]decane dihydrochloride] | 85 | 100 | 100 | 22 | 72 | 32 | 46 | –
O=C1NCC2(CCN(C(c3ccc(Cl)cc3)c3ccc(OCc4ccc5ccccc5n4)cc3)CC2)O1 (racemic) [Example 22, (R,S)-8-{(4-chlorophenyl)-[4-(quinol-2-ylmethoxy)phenyl]methyl}-3,8-diaza-1-oxa-2-oxospiro[4,5]decane dihydrochloride] | 76 | 100 | 97 | 18 | 4 | 6 | 17 | < 4.00
O=C1NCC2(CCN(C(c3ccccc3)c3ccc(OCc4ccc5ccccc5n4)cc3)CC2)O1 (racemic) [Example 24, (R,S)-8-{phenyl-[4-(quinol-2-ylmethoxy)phenyl]methyl}-3,8-diaza-1-oxa-2-oxospiro[4,5]decane] | 56 | – | 100 | – | 44 | 19 | 41 | < 4.00
O=C1NCC2(CCN(CC(Cc3ccccc3)c3ccc(OCc4ccc5ccccc5n4)cc3)CC2)O1 (racemic) [Example 32, (R,S)-8-{3-phenyl-2-[4-(quinol-2-ylmethoxy)phenyl]propyl}-3,8-diaza-1-oxa-2-oxospiro[4,5]decane] | 24 | 100 | 78 | – | 92 | – | 55 | –
O=C1NCC2(CCN(CC(CCc3ccccc3)c3ccc(OCc4ccc5ccccc5n4)cc3)CC2)O1 (racemic) [Example 33, (R,S)-8-{4-phenyl-2-[4-(quinol-2-ylmethoxy)phenyl]butyl}-3,8-diaza-1-oxa-2-oxospiro[4,5]decane] | 54 | – | 86 | 6 | 94 | 7 | 48 | –
O=C1NCC2(CCN(CC(Cc3ccc(Cl)cc3)c3ccc(OCc4ccc5ccccc5n4)cc3)CC2)O1 (racemic) [Example 34, (R,S)-8-{3-(4-chlorophenyl)-2-[4-(quinol-2-ylmethoxy)phenyl]propyl}-3,8-diaza-1-oxa-2-oxospiro[4,5]decane hydrochloride] | 56 | 100 | 72 | 12 | 6 | 2 | 58 | < 4.00
